Values quoted from earlier work, collected in patent publication US20200230099A1, “Stable Pharmaceutical Composition Comprising Zanamivir” (Dae Hwa Pharma. Co., Ltd., priority 2017, published 2020).
Where two headings read alike, the source gives them in different places.

Conditions: in vivo

CC(=O)N[C@H]1[C@H]([C@H](O)[C@H](O)CO)OC(C(=O)O)=C[C@@H]1N=C(N)N [zanamivir, 5-(acetylamino)-4-[(aminoiminomethyl)amino]-2,6-anhydro-3,4,5-trideoxy-D-glycero-D-galacto-non-2-enonic acid]
bioavailability: about 2%
bioavailability (inhaled or intranasal): 4-17%
